Positions of bridges follow the written chain, without caps; N, C: chain ends. Non-standard residues stand in square brackets, D forms with d. Residues, ends and D or L forms follow the SMILES beside them. *: point of attachment. X1 = N=C(N)NCCC[C@H]1C(=O)N[C@@H](C(N)=O)CN1*; dNle = CCCC[C@@H](N)C(=O)O; Heptanoyl = CCCCCCC(=O)*
How the values were obtained:
[1] = system: bronchoconstrictor response evoked by methacholine; experiment: Methacholine-evoked bronchoconstriction in anesthetized guinea pigs, intratracheal delivery; type: in vivo, guinea pigs (Dunkin Hartley); settings: 1000 μg/kg IT, 15 minutes, methacholine 10 μg/mL
Procedure: Studies were conducted with intratracheal (IT) delivery of the construct of formula IV in anesthetized guinea pigs (Dunkin Hartley) challenged with the muscarinic receptor agonist, methacholine. […] The inhibition was maintained for all doses after the 60 minute pretreatment time. The duration of action of 10 μg/kg and 100 μg/kg doses of the construct of formula IV was explored (FIGS. 4C and 4D). For both doses the inhibition extended to 120 minutes post-administration, although it was reduced, with inhibitory effect absent after 240 minutes pretreatment.

human NEP (hNEP) = human NEP (hNEP) (Homo sapiens, UniProt P08473); experiment: Metabolism by human neutral endopeptidase (hNEP) solution at 37° C.; type: in vitro ADME; settings: substrate concentration 50 μM; for remaining at 2 h, 50 μM: read-out: percent remaining after 2-hour exposure to hNEP
Procedure: . Pharmacol. 191:341-366 (2009)). A comparison was made between the sensitivity of the construct of formula IV and ANP to metabolism by human NEP (hNEP) (substrate concentration 50 μM). After 2-hour exposure to hNEP solution at 37° C., there was minimal degradation of the construct of formula IV (92% remaining; n=5). In contrast, under these conditions ANP was about 90% degraded after 60 minutes and 100% after 2-hours (n=4). […] Results are shown in FIG. 1; results in FIG. 1 are expressed as the percent of the starting material, and are either the mean of 1-5 experiments or, where error bars are shown, are the mean±standard deviation.

human lung tissues = experiment: Human precision-cut lung slice relaxation, precontracted with carbachol; type: cell-based
[2] = Potter et al. 2009; cited from earlier work

Chain of human NEP (hNEP) (P08473 whole entry): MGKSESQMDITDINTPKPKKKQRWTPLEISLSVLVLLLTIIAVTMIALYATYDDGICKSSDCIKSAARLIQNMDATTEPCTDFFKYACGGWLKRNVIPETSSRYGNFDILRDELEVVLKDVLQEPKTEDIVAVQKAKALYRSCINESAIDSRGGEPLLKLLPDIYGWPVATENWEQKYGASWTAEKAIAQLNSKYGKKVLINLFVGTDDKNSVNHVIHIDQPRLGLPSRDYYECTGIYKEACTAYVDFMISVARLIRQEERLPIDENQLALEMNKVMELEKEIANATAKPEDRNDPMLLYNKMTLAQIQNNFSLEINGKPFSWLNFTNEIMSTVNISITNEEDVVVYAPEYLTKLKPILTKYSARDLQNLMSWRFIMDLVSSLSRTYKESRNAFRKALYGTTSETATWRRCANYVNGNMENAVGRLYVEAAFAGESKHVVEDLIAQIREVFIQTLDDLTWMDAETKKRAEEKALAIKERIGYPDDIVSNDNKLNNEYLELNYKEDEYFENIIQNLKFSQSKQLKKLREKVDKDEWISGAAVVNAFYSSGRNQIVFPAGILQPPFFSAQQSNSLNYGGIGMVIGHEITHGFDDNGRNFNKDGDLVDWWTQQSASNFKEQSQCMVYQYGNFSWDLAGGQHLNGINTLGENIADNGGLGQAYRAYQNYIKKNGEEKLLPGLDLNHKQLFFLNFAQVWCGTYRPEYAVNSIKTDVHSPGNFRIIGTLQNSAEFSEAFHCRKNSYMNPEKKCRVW

With CC(C)(C)NCC(O)c1ccc(O)c(CO)c1 (stereo not shown) [salbutamol] the “maximum inhibition of bronchoconstrictor response” value [1] was 87±2%.

In the case of CCCCCCC(=O)N[C@H]1CSSC[C@@H](C(=O)N[C@@H](Cc2ccc(O)cc2)C(=O)N2C[C@H](C(N)=O)NC(=O)[C@@H]2CCCNC(=N)N)NC(=O)[C@H](CO)NC(=O)[C@H]([C@@H](C)CC)NC(=O)[C@H](CCCNC(=N)N)NC(=O)[C@H](CC(=O)O)NC(=O)[C@@H](CCCC)NC(=O)[C@H](CCCNC(=N)N)NC(=O)CNC(=O)[C@@H](C)NC(=O)[C@H](Cc2ccccc2)NC(=O)[C@H](Cc2c[nH]cn2)NC1=O [construct of formula IV] (Heptanoyl-CHF[dA]GR[dNle]DRISCY-X1; disulfide 1-12), the remaining at 2 h, 50 μM (human NEP (hNEP)) is reported as 92%.

In the case of CC(C)NCC(O)c1ccc(O)c(O)c1 (stereo not shown) [Isoprenaline], the “relaxation of carbachol-induced contraction” value (human lung tissues; 100 μM, human lung slices) is reported as “about 75%” and the Isoproterenol-mediated broncho-dilatation (human lung tissues; in the absence of the construct of formula IV, n=4) is reported as 88.2±3.4%.

For CC[C@H](C)[C@@H]1NC(=O)[C@H](CCCNC(=N)N)NC(=O)[C@H](CC(=O)O)NC(=O)[C@H](CC(C)C)NC(=O)[C@H](CCCCN)NC(=O)[C@H](CC(C)C)NC(=O)CNC(=O)[C@H](Cc2ccccc2)NC(=O)[C@@H](NC(=O)CNC(=O)[C@H](CCCCN)NC(=O)[C@H](CO)NC(=O)[C@H](CC(C)C)NC(=O)CN)CSSC[C@@H](C(=O)O)NC(=O)CNC(=O)[C@H](CC(C)C)NC(=O)CNC(=O)[C@H](CO)NC(=O)[C@H](CCSC)NC(=O)[C@H](CO)NC(=O)CNC1=O [hCNP], the “reported human plasma half-life” value [2] is given as “about 2 minutes”, the remaining at 1 h, 50 μM (human NEP (hNEP); 60 min, read-out: percent remaining after 60-min incubation with hNEP) is given as 39% and the remaining at 2 h, 50 μM (human NEP (hNEP)) is given as 1%.
